Laboratory results: publication PMC2010042, “Effects of pretreatment with phenobarbitone and phenytoin on the pharmacokinetics and toxicity of phenytoin on the pharmacokinetics and toxicity of misonidazole in mice” (British Journal of Cancer, 1979)
Structures can show the parent of a compound that is named as a salt.

Columns and labels:
[1] = Pharmacokinetics of MIS and Ro 05-9963 in plasma/blood, brain and tumour by HPLC after 1 g/kg MIS i.p.; settings: for concentrations in whole blood compared with plasma: control studies
mice = system: mice; parameters: method as in Brown et al., 1979; settings: ref Brown et al., 1979; cited from earlier work
[2] = parameters: method as in Adams et al., 1976; settings: ref Adams et al., 1976; cited from earlier work
[3] = Pharmacokinetics of MIS and Ro 05-9963 after 1 g/kg MIS i.p. in B10 mice bearing the MC6B tumour; settings: enzyme inducers; B10 strain
hypoxic tumour cells = system: hypoxic tumour cells; parameters: method as in Brown et al., 1979; settings: at equal tumour concentrations; ref Brown et al., 1979; cited from earlier work
[4] = Approximate acute LD50 of single doses of phenobarbitone and phenytoin; settings: male, BALB/c, mouse, in vivo
MC6B and EMT6 tumours = assay: Tumour volume in pretreated mice; format: in vivo; settings: usually not significant (P > 0.05)
liver weight = assay: Liver/body weight ratio after pretreatment; format: in vivo, tumour-free BALB/c mice; settings: Day 9 after pretreatment regime
[5] = system: microsomal drug-metabolizing enzymes; assay: Pentobarbitone sleeping-time after pretreatment (index of microsomal enzyme induction); format: in vivo, tumour-free BALB/c mice; settings: 60 mg/kg pentobarbitone i.p. on Day 9 after pretreatment regime
[6] = Body weight during pretreatment regime
BALB/c male mice = settings: MIS single i.p. 1.117-2.5 g/kg
man = settings: ref Dische et al., 1977; Urtasun et al., 1978; cited from earlier work
[7] = 1 g/kg; ref Brown et al., 1979; cited from earlier work
in vivo = settings: male, BALB/c, mouse, ip, LD50(7d) (95% confidence limits), MIS single i.p.
body temperature = settings: 1 g/kg MIS; all 3 pretreated groups (saline, phenobarbitone, phenytoin)
[8] = preliminary studies in man
[9] = phenobarbitone or phenytoin pretreatment (Discussion)

O=[N+]([O-])c1nccn1CC(O)CO (stereo not shown) [Ro 05-9963, 1-(2-nitroimidazol-1-yl)-2,3-propandiol]
concentrations in whole blood compared with plasma [1]: identical | increase of blood (or plasma) AUC for metabolite Ro 05-9963 ([1]; enzyme inducers, BALB/c mice): 10-60% | LD50 compared with MIS (mice): higher LD50 than MIS | lipophilicity compared with MIS [2]: considerably less lipophilic than MIS | increase of blood (or plasma) AUC for metabolite Ro 05-9963 [3]: 100% | radiosensitizing efficiency of MIS and Ro 05-9963 (hypoxic tumour cells): equally good radiosensitizers

O=C1NC(=O)C(c2ccccc2)(c2ccccc2)N1 [phenytoin, 5.5-diphenylhydantoin, sodium salt]
LD50 [4]: 200 to 240 mg/kg | tumour volumes lower than the saline controls (MC6B and EMT6 tumours): up to 10% | liver wt/body wt, % of untreated control (liver weight): 124% | pentobarbitone sleeping-time, % of untreated control [5]: 30% | weight loss during pretreatment ([6]; mouse, in vivo): little or no weight loss

CCC1(c2ccccc2)C(=O)NC(=O)NC1=O [phenobarbitone]
tumour volumes lower than the saline controls (MC6B and EMT6 tumours): up to 10% | pentobarbitone sleeping-time, % of untreated control [5]: 36% | pentobarbitone sleeping-time, mean [5]: 26 min | initial weight loss during pretreatment regime ([6]; normally completely regained by Day 9): up to 10%

COCC(O)Cn1ccnc1[N+](=O)[O-] (stereo not shown) [MIS, 1-(2-nitroimidazol-1-yl)-3-meth-oxypropan-22-ol]
time of deaths after treatment (BALB/c male mice): 3 to 4 days | peripheral neuropathy in man (man): dose-limiting toxicity | reduction of apparent elimination half-life (t1/2) for MIS ([1]; 1 g/kg MIS i.p., phenobarbitone or phenytoin pretreatment vs control, plasma, brain and tumour): 20-67% | decrease of area under the curve (AUC) for MIS ([1]; 1 g/kg MIS i.p., phenobarbitone or phenytoin pretreatment, plasma, brain and tumour): 23-49% | concentrations in whole blood compared with plasma [1]: identical | Kp ([1]; male, BALB/c, mouse, tumour and brain / plasma, ip, 1 g/kg): ~0.5 | effect of pretreatment on peak MIS concentration ([1]; phenobarbitone and phenytoin pretreatment, plasma, brain or tumour): did not alter | decrease of blood (or plasma) MIS AUC [1, 9]: 25- 60% | shortening of apparent t1/2 for MIS elimination from blood or plasma [1, 9]: 35-60% | t1/2 of MIS after bilateral kidney ligation [7]: prolonged after bilateral kidney ligation | radiosensitizing efficiency of MIS and Ro 05-9963 (hypoxic tumour cells): equally good radiosensitizers | LD50 at 7 days (in vivo; pretreatment phenobarbitone): 1900 mg/kg | LD50 at 7 days (in vivo; pretreatment phenytoin): 1780 mg/kg | LD50 at 7 days (in vivo; pretreatment saline (control)): 1540 mg/kg | change in body temperature after MIS (body temperature): marked decrease in temperature | MIS t1/2 and AUC with phenytoin therapy [8]: both reduced
